# Measured values reported in patent US11207379B2, “Peptides with anti-cancer activity” (IDP DISCOVERY PHARMA, S.L., priority 2016, dated 2021).
# Legend:
# [1] = biological target: A549, epithelial (lung cancer); assay: Viability assay (MTT, Alamar Blue, hexosaminidase), 72 h; format: cell-based; details: A549 cells, read-out: EC50
# Protocol: A549, epithelial (lung cancer), ATCC:CCL-185
# (§1) Cell lines A549, MCF-7 and RAMOS were cultured in incubator under CO2 (6%) at 37° C. in DMEM high glucose (Dulbecco's Modified Eagle Solution, Gibco-BRL 31966-21) medium with 10% fetal bovine serum inactivated (FBS) (Gibco-BRL 10106-169). Cell lines HL-60 and MM.1S were cultured in incubator at 37° C. in RPMI-1640 (Sigma R8758) medium with 10% of fetal bovine serum inactivated (FBS) and 2 mM glutamine (Sigma G7513). Cell lines BJ were cultured in incubator under CO2 (6%) at 37° C. in Eagle's Minimum Essential Medium (Sigma, M-2279) with 10% fetal bovine serum inactivated (FBS) (Gibco-BRL 10106-169).
# (§2) During the amplification step and the assays adherent cells were rinsed with DPBS (Dulbecco's Phosphate Buffered Saline, Sigma D1283) three times and afterward treated for 5 minutes with trypsin ([…]) (Gibco-BRL, 15400054) in solution of DPBS at 37° C., and, once detached, transferred in the culturing medium. No-adherent cells were centrifuged and transferred in the culturing medium. Cells were counted in a Neubauer chamber after labelling with Tripan-Blue.
# (§3) A549, MCF-7 and JB cells were seeded at a density of 5000 cells/well and HL-60, MM.1S and Ramos at 10000 cells/well in 100 μl of medium in 96 well plates. After 24 h, the compounds to be tested were added to calculate the dose/response curve at the starting concentration of 100 μM with serial dilutions (1:1). Controls are the untreated cells. Each experiment was performed in triplicate.
# (§4) Cells were incubated during 72 h in incubator under CO2 atmosphere at 37° C. Cell viability was measured by means of MTT (3-(4,5-dimethylthiazol-2-yl)-2.5-diphenyltetrazolium bromide) assay, Alamar Blue® (Biosource DAL1100) and Hexosaminidase activity test, consecutively, following manufacturer instructions.
# (§5) MTT: 1. Stock solution of MTT (475989 Calbiochem) was 5 mg/ml in PBS 1×. As negative control (experiment noise) 3 wells were treated with 20 μl/well of a solution of SDS 10% in H2O. The same control was used for Alamar Blue/Hexosaminidase. 10 μl/well of MTT solution were added and the plate was incubated for 3-4 hr. The medium was discarded and 100 μl of extracting buffer (PBS 1×, 15% SDS, 50% […] N,N-Dimethylformamide, pH 4.7) were added to each well. Plates were incubated for 16 h at room temperature under orbital shaking. Absorbance at 570 nm was finally measured.
# (§6) Alamar Blue: 10 μl Alamar Blue solution was added to each well and the plates were incubated for […] in the incubator. Fluorescence ratio at 535/590 (excitation/emission) was measured in Cytofluor (Millipore) fluorimeter. Blank control was determined by lysis of untreated cells with con 2% of Triton X100, right before adding Alamar Blue solution.
# (§7) Hexosaminidase activity test: after Alamar Blue lecture, medium was discarded and plates were rinsed once with PBS. 60 μl hexosaminidase substrate (p-nitrophenol-N-acetyl-beta-D-glucosamide 7.5 mM [Sigma N-9376], sodium citrate 0.1 M, pH 5.0, 0.25% Triton X-100) was added to each well and the plates were incubated at 37° C. for 2-5 h, according to the cell type (hexosaminidase activity changes according to the cell type). […] Blank control was the same as described before.
# (§8) Data analysis was performed calculating the percentage of cell viability normalized vs. the values of negative control, which was considered equal to 100%. The dose/response curve was fitted through the sigmoidal equation dose-response (variable slope) and the EC50 values were calculated as follow: Y=Bottom+(Top−Bottom)/(1+10^{[(Log EC50−X)*HillSlope]},
# [2] = biological target: MM.1S, B Lymphoblast (multiple myeloma); assay: as above; format: cell-based; details: MM.1S cells, read-out: EC50
# Protocol: MM.1S, B Lymphoblast (multiple myeloma), ATCC: CRL-2974
# as §1, §2, §3, §4, §5, §6, §7, §8
# MM1S cells = assay: Subcutaneous xenograft model, tumor volume and survival; format: in vivo, CB17-SCID immunosuppressed mice; details: 5 mg/kg i.p. each 12 h; for Tumor Volume: in mm³ (unit assumed)
# Protocol: CB17-SCID immunosuppressed mice (female) of 6-7 weeks old housed and handled in a pathogen-free zone. They were purchased from Janvier Labs. All experiments were carried out within the facilities of the University of Salamanca.
# Groups Studied: • Control: Medium (PBS) i.p. each 12 hours from Monday to Friday. • S03 i.p. each 12 hours from Monday to Friday (in PBS until end point) • S04 15 mg/kg i.p. each 12 hours from Monday to Friday (in PBS until end point) • S09 5 mg/kg i.p. each 12 hours from Monday to Friday (in PBS until end point)
# Subcutaneous xenoaraft model: The mice were shaved on the right flank and anesthetized by inhalation to decrease their mobility, were inoculated subcutaneously with 3×10^6 MM1S cells in 50 μl of RPMI-1640 medium and 50 μl of Corning® Matrigel® Basement Membrane Matrix. When the tumors became palpable (at 30 days), the mice were randomized into the different groups (5 mice in the control group and 4 in the remaining groups) according to the tumor volume. This was estimated by measurements with a caliper of the two tumor diameters and using the following formula of a spheroid: V=(a·b^2·π)/6, where a and b correspond to the longest and shortest diameter, respectively. Tumor volume was monitored three times per week.
# Survival evaluation: Mice were sacrificed when their tumor diameter reached 2 cm. The time to reach the endpoint criterion was estimated from the day of treatment start. The statistical differences were evaluated using Kaplan-Meier curves with the log rank test. Statistical analyzes were performed using the SPSS-17.0 program.
# [3] = biological target: RAMOS, B lymphocyte (Burkitt's Lymphoma); assay: Viability assay (MTT, Alamar Blue, hexosaminidase), 72 h; format: cell-based; details: Ramos cells, read-out: EC50
# Protocol: RAMOS, B lymphocyte (Burkitt's Lymphoma), ATCC: CRL-1596
# as §1, §2, §3, §4, §5, §6, §7, §8
# [4] = system: JB healthy cells (BJ, fibroblast, normal skin); assay: as above; format: cell-based
# Protocol: BJ, fibroblast (normal skin), ATCC® CRL-2522™
# as §1
# as §2, with “No-adherent cells were centrifuged and transferred in the culturing medium.” left out, “Tripan-Blue. […]” for “Tripan-Blue.”
# as §4, with “instructions. […]” for “instructions.”
# [5] = biological target: MCF-7, epithelial (breast cancer); assay: as above; format: cell-based; details: MCF7 cells, read-out: EC50
# Protocol: MCF-7, epithelial (breast cancer), ECACC: 86012803
# as §1, §2, §3, §4, §5, §6, §7, §8
# [6] = biological target: HL-60, promyeloblast (acute myelocytic leukemia, AML); assay: as above; format: cell-based; details: HL-60 cells, read-out: EC50
# Protocol: HL-60, promyeloblast (acute myelocytic leukemia, AML), ECACC: 98070106
# as §1, §2, §3, §4, §5, §6, §7, §8
substance,measurement,setting,value
RQRRNXLKRAFAXLRDQ-OH [IDP-S03],EC50,[1],34 ± 6 µM
same,EC50,[2],~14 µM
same,differences in survival with respect to the control,MM1S cells,9.5
same,tumor reduction with respect to the control,MM1S cells; at the end-time (when the control is sacrificed),50%
same,% Tumor Volume,MM1S cells; day of treatment 1 (= 100),100%
same,Tumor Volume,MM1S cells; day of treatment 1,59.0
same,% Tumor Volume,"MM1S cells; day of treatment 5, relative to day 1",193.2%
same,Tumor Volume,MM1S cells; day of treatment 5,114.1
same,% Tumor Volume,"MM1S cells; day of treatment 10, relative to day 1",443.9%
same,Tumor Volume,MM1S cells; day of treatment 10,262.1
same,% Tumor Volume,"MM1S cells; day of treatment 15, relative to day 1",661.6%
same,Tumor Volume,MM1S cells; day of treatment 15,390.7
same,% Tumor Volume,"MM1S cells; day of treatment 19, relative to day 1",969.5%
same,Tumor Volume,MM1S cells; day of treatment 19,572.6
same,% Tumor Volume,"MM1S cells; day of treatment 26, relative to day 1",2481.2%
same,Tumor Volume,MM1S cells; day of treatment 26,1465.2
same,"Mean survival, Average",MM1S cells; from treatment start until tumor diameter 2 cm,40.5 days
same,EC50,[3],~13 µM
same,EC50,[4],> 100 µM
same,EC50,[5],32 ± 5 µM
same,EC50,[6],~6.6 µM
